We go through 1 compound from patent US20080292617A1, “ANTIBODY AGAINST A PEPTIDE DERIVED FROM HUMAN MUTANT LAMIN A PROTEIN AND USES THEREOF” (THE TRUSTEES OF COLUMBIA UNIVERSITY IN THE CITY OF NEW YORK, priority 2005, published 2008).

One assay relates to HGPS fibroblast cultures. Nature of the assay: Scoring of abnormally shaped nuclei in fibroblast cultures treated with farnesyltransferase inhibitor. The conditions noted are these: 20 μM FTI-277 daily, after 48 h treatment, HGPS fibroblasts PPDs 35-38; decreased from 31%. Format: cell-based, human. The text has this:
Indirect immunofluorescence and Western blot: Primary cultures of dermal fibroblasts were processed for indirect immunofluorescence as described previously (Paradisi et al, 2005). Rabbit antibodies directed against A-type and B-type lamins were described previously (Chaudhary et al, 1993; Cance et al, 1992). Goat anti-lamin B1 M-20 and anti-prelamin A C-20 (Santa Cruz), monoclonal antibodies anti-emerin 4G5 (Novocastra), anti-nucleoporin Nup153 clone 414 (Covance), anti-lamin A Jo14 (Serotec), and anti-Ki-67 (BD Bioscience) were purchased. Secondary antibodies were affinity purified Alexa Fluor 488 goat or donkey IgG antibodies (Molecular Probes) and Cy3-conjugated IgG antibodies (Jackson ImmunoResearch laboratories). All samples were counterstained with DAPI (Sigma-Aldrich). […]
Quantification: The percentages of ki-67 positive cells, of misshapen or blebbing nuclei, and senescence β-gal positive cells were determined by direct count of 300 cells per coverslip in triplicate, and from three independent experiments. […]
To determine the role of farnesylation in HGPS nuclear abnormalities, control and HGPS fibroblast cultures (PPDs 35-38) were treated daily with 20 μM farnesyltransferase inhibitor FTI-277 (Adjei et al, 2000). […] Progerin was also detected in nuclear foci similarly to wild-type prelamin A (FIG. 6B).

The test system of assay [1] is progerin (LMNA G608G) in HGPS fibroblasts. The assay is described as follows: Immunofluorescence localization of progerin after FTI-277 treatment. Format: cell-based, human. The text has this: Indirect immunofluorescence and Western blot: Primary cultures of dermal fibroblasts were processed for indirect immunofluorescence as described previously (Paradisi et al, 2005). Rabbit antibodies directed against A-type and B-type lamins were described previously (Chaudhary et al, 1993; Cance et al, 1992). Goat anti-lamin B1 M-20 and anti-prelamin A C-20 (Santa Cruz), monoclonal antibodies anti-emerin 4G5 (Novocastra), anti-nucleoporin Nup153 clone 414 (Covance), anti-lamin A Jo14 (Serotec), and anti-Ki-67 (BD Bioscience) were purchased. Secondary antibodies were affinity purified Alexa Fluor 488 goat or donkey IgG antibodies (Molecular Probes) and Cy3-conjugated IgG antibodies (Jackson ImmunoResearch laboratories). All samples were counterstained with DAPI (Sigma-Aldrich). When cells were treated daily for 3 days with farnesyltransferase inhibitor FTI-277 (Calbiochem), the culture medium was supplemented with 20 μM FTI-277 or DMSO prior to immunofluorescence analysis as described previously (Adjei et al, 2000). Images were processed using Adobe Photoshop. For Western blot analysis, total cellular protein extracts were isolated from dermal fibroblast cultures at different population doublings (25 to 55) and processed as described previously (Paradisi et al, 2005).
To determine the role of farnesylation in HGPS nuclear abnormalities, control and HGPS fibroblast cultures (PPDs 35-38) were treated daily with 20 μM farnesyltransferase inhibitor FTI-277 (Adjei et al, 2000). After 48 h treatment, the percentage of HGPS nuclei with abnormal shapes decreased from 31% to 8% (FIG. 6A). The intranuclear repartition of prelamin A and the localization of LMNA G608G differed greatly between treated and un-treated cells; prelamin A was not detectable in control or HGPS cells (FIG. 6B). […] Progerin was also detected in nuclear foci similarly to wild-type prelamin A (FIG. 6B).

SMILES strings stand for the structures.

For `COC(=O)[C@H](CCSC)NC(=O)c1ccc(NC[C@@H](N)CS)cc1-c1ccccc1` [FTI-277], the “percentage of HGPS nuclei with abnormal shapes” value in the assay on HGPS fibroblast cultures is on record as 8%. In addition, the “progerin localization (anti-LMNA G608G staining)” value in assay [1] (20 μM FTI-277, 76 h after treatment) is “progerin was totally depleted from the NE in most nuclei”; in assay [1] (20 μM FTI-277, after 24 h treatment), “progerin was still incorporated into the nuclear lamina”; in assay [1] (20 μM FTI-277, after 48 h treatment), “progerin was progressively depleted from the NE and lamina”.
